How the values were obtained:
Test in all cases: relative viability (nuclei count vs DMSO), 5 days (fraction); higher = more cells survive
[1] = compound: C[C@@H](N)c1ccc(C(=O)Nc2ccnc3[nH]ccc23)cc1 + CC1(C)CCC(c2ccc(Cl)cc2)=C(CN2CCN(c3ccc(C(=O)NS(=O)(=O)c4ccc(N[C@H](CCN5CCOCC5)CSc5ccccc5)c(S(=O)(=O)C(F)(F)F)c4)cc3)CC2)C1 [Navitoclax] (partner 0.5 µM)
In short: (§1)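 Lung cancer cell lines, seeded in 1536-well plates, were treated the following day by pin tool with a single drug or with five library-drug doses (not always all listed) in √10 steps on top of a fixed anchor-drug dose. Cells were fixed and nuclei stained in one step after 5 days, and nuclei were counted. Relative viability is the nuclei count for treated wells divided by that for vehicle wells, reported as medians of duplicate plates.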

[2] = compound: O[C@H]1CC[C@H](Nc2ncc3nc(Nc4c(F)cc(F)cc4F)n([C@H]4CCOC4)c3n2)CC1 [Tanzisertib] + NC(=O)Nc1cc(-c2cccc(F)c2)sc1C(=O)N[C@H]1CCCNC1 [AZD7762] (partner 0.2 µM)
In short: as §1

[3] = compound: O[C@H]1CC[C@H](Nc2ncc3nc(Nc4c(F)cc(F)cc4F)n([C@H]4CCOC4)c3n2)CC1 [Tanzisertib] + Nc1ncn([C@H]2C[C@H](O)[C@@H](CO)O2)c(=O)n1 [Decitabine] (partner 2 µM)
In short: as §1

[4] = compound: O[C@H]1CC[C@H](Nc2ncc3nc(Nc4c(F)cc(F)cc4F)n([C@H]4CCOC4)c3n2)CC1 [Tanzisertib] + O=C(CCCCCCC(=O)Nc1ccccc1)NO [Vorinostat] (partner 1 µM)
In short: as §1

Cell Line	relative viability ([1]; first compound 0.04 µM)	relative viability ([1]; first compound 0.1265 µM)	relative viability ([1]; first compound 0.4 µM)	relative viability ([1]; first compound 1.265 µM)	relative viability ([1]; first compound 4 µM)	relative viability ([2]; first compound 0.08 µM)	relative viability ([2]; first compound 0.253 µM)	relative viability ([2]; first compound 0.8 µM)	relative viability ([2]; first compound 2.53 µM)	relative viability ([2]; first compound 8 µM)	relative viability ([3]; first compound 0.08 µM)	relative viability ([3]; first compound 0.253 µM)	relative viability ([3]; first compound 0.8 µM)	relative viability ([3]; first compound 2.53 µM)	relative viability ([3]; first compound 8 µM)	relative viability ([4]; first compound 0.08 µM)	relative viability ([4]; first compound 0.253 µM)	relative viability ([4]; first compound 2.53 µM)	relative viability ([4]; first compound 8 µM)	relative viability ([4]; first compound 0.8 µM)
HARA	1.14	1.2	1.19	1.27	0.889	0.288	0.358	0.337	0.286	0.275	0.602	0.579	0.504	0.566	0.539	0.558	0.556	0.385	0.585	
NCI-H1793	0.415	0.421	0.409		0.501	0.643	0.574	0.462	0.406	0.397	0.533	0.48	0.509	0.51	0.453	0.787	0.789	0.641	0.551	0.748
NCI-H322M	1.2	1.21	1.36		1.55	0.567	0.547	0.547	0.527	0.492	0.724	0.743	0.746	0.705	0.695	0.863	0.961	0.912	0.75	0.875
LXF-289	1.01	0.915	1.02	1.07	0.876	1.21	1.09	1.19	1.1	1.12	0.419	0.379	0.387	0.416	0.39	0.835	0.766	0.818	0.767	0.88
HCC-827	0.872	0.993	0.971	1.05	0.843	0.206	0.227	0.19	0.164	0.147	0.338	0.372	0.257	0.367	0.207	0.747	0.871	0.853	0.357	0.725
EMC-BAC-2	1.28	1.18	1.21	1.4	0.977	1.16	1.15	1.04	0.947	1.04	1.05	0.947	0.957	0.96	0.937	0.46	0.849	0.5	0.217	0.464
NCI-H1755	1.04	0.985	0.962	0.933	0.622	0.462	0.474	0.441	0.399	0.384	0.737	0.701	0.705	0.754	0.726	0.756	0.791	0.624	0.79	0.828
NCI-H1993	0.904	1.01		0.901	0.947	1.21	0.867	0.731	0.68	0.823	0.723	0.732	0.589	0.438	0.539	0.901	0.928	0.769	0.77	1.1
NCI-H23	1.06	0.963	0.986		0.582	0.224	0.245	0.236	0.317	0.214	0.3	0.301	0.32	0.282	0.374	0.542	0.596	0.49	0.474	0.498
NCI-H1437	1.11	1.06	1.15	1.1	0.993	1.15	1.15	1.12	1.12	1.12	0.622	0.572	0.606	0.629	0.533	0.876	0.896	0.895	0.97	0.88
NCI-H2405		0.799	0.513	0.41	0.279	0.767	0.794	0.757	0.795	0.617	0.784	0.783	0.76	0.914	0.629	1.04	1.19	1.17	0.404	1.14
NCI-H838	1.08	1.1	0.84	0.714	0.524	0.964	0.962	0.889	0.909	0.972	0.455	0.468	0.459	0.483	0.481	0.745	0.73	0.676	0.651	0.733
NCI-H1734	0.943	0.82	0.81		0.443	0.596	0.532	0.558	0.534	0.526	0.492	0.492	0.399	0.52	0.441	0.966	0.781	0.906	0.81	0.756
NCI-H596	1.01	1.2	0.96	1.06	0.955	1.04	1.04	1.12	0.995	1.04	0.986	1.08	0.982	1	0.863	0.533	0.655	0.711	0.589	0.619
NCI-H1944	1.05	1.01	1.06		0.876	0.526	0.507	0.52	0.422	0.458	0.453	0.416	0.43	0.397	0.459	0.607	0.562	0.611	0.533	0.633
LK-2	0.976	1.18	0.927	0.82	0.762	0.41	0.455	0.421	0.32	0.346	0.325	0.379	0.217	0.381	0.221	0.365	0.356	0.25	0.278	0.282

Reference: the supplement of paper PMC10307832
